From patent US20160296499A1, “Spiroindoline Antiparasitic Derivatives” (ZOETIS SERVICES LLC, priority 2013, published 2016)
pKi: −log10 of the molar value. Like-named read-outs stand apart in the source and are kept apart here.

Assays:
[1] = biological target: T1, bovine vesicular acetylcholine transporter (VAChT) (Bos taurus, UniProt E1BK36); assay: Radioligand Binding Assay; conditions: Bovine binding Ki, CHO-K1 membranes with recombinant bovine VAChT, [3H]Compound X6 0.3 nM
T1 sequence (E1BK36 1-524): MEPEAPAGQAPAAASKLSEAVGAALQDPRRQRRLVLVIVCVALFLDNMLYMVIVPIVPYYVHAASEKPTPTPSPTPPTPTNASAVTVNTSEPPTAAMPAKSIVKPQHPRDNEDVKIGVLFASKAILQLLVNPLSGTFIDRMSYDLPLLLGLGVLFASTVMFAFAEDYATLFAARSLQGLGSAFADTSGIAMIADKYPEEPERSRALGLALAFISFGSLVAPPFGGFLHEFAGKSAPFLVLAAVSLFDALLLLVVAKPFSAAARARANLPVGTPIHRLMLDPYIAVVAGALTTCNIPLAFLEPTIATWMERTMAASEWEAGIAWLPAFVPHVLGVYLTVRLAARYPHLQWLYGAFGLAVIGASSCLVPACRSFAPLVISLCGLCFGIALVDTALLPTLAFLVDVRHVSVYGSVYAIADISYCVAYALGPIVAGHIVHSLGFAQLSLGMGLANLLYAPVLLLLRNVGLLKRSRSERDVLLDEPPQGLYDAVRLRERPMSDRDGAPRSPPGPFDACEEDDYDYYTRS
Protocol: To measure binding affinity, CHO-K1 cells recombinantly expressing the bovine VAChT was generated as a stable cell line and subsequently used to produce membrane preparations.
Radioligand binding assays were conducted in disposable polypropylene 96-well plates. VAChT competition assays were initiated by the addition of bovine recombinant membrane homogenate (50 μg/well) in assay buffer (50 mM Tris-HCl, 120 mM NaCl, 5 mM KCl, 1 mM MgCl, and 2 mM CaCl, pH 7.4) containing [^3H]Compound X6 (0.3 nM) with or without competing ligand. The assay was allowed to equilibrate for 120 minutes at room temperature, before being filtered onto GF/C unifilter plates pre-coated in 0.3% polyethylenimine (Perkin Elmer Life and Analytical Sciences, Boston, Mass.) with a Filtermate 96 harvester (PerkinElmer Life and Analytical Sciences). Filters were washed in ice-cold 50 mM Tris-HCl, pH 7.4 buffer and then counted for radioactivity in a TopCount microplate scintillation counter after addition of 50 μL Microscint 20 (PerkinElmer). Non-specific binding was measured in the presence of 10 μM Compound X6. Apparent dissociation constants (Ki values) from the competition experiments were calculated using an iterative nonlinear regression curve-fitting program (GraphPAD Prism 6.0 Software, San Diego, Calif.) and are reported in Table 2.

[2] = system: Haemonchus contortus L3; assay: Haemonchus contortus, Larvae Stage 3 (HcL3) In Vitro Assay
[3] = system: Dirofilaria immitis microfilariae; assay: Dirofilaria immitis, Microfilariae (DiMF) In Vitro Assay
[4] = system: mammals; conditions: Brittain et. al.; cited from earlier work
[5] = biological target: T2, vertebrate VAChT (Homo sapiens, UniProt Q16572); conditions: Khare et. al.; cited from earlier work
T2 sequence (Q16572 1-532): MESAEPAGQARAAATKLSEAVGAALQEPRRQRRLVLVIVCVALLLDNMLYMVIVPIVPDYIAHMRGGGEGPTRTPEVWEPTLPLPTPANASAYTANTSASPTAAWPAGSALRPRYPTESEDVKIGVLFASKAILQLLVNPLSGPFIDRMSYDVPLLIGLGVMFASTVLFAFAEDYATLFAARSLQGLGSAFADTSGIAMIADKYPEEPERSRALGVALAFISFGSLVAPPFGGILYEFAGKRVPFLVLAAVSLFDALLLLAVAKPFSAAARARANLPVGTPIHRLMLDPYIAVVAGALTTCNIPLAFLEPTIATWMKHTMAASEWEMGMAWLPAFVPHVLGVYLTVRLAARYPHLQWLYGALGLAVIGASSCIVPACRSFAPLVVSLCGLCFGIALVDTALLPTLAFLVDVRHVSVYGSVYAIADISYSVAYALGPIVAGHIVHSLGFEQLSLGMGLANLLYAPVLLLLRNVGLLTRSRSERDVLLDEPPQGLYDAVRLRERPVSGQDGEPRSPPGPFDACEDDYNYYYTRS

[6] = Haemonchus contortus, 96 h, read-out: HcL3 MEC, Minimal Effective Concentration whereby worm motility is inhibited by approximately 70%, 37° C., tested 0.001-100 μM
[7] = Dirofilaria immitis, 72 h, read-out: Di MF, MEC, decrease in microfilariae motility by visual assessment, curve starting at 100 μM
[8] = Haemonchus contortus, 96 hours, 37° C., read-out: HcL3 MEC
[9] = Dirofilaria immitis, 72 hours, read-out: Di MF

SMILES	pKi [1]	minimal effective concentration [2, 6] [µM]	minimal effective concentration [3, 7] [µM]	further results
O=C(NCc1ccnc(C(F)(F)F)c1)N1CC2(CCN(C/C=C/c3ccc(F)cc3)CC2)c2cc(OC(F)(F)F)ccc21 [Example 175, (E)-1′-(3-(4-fluorophenyl)allyl)-5-(trifluoromethoxy)-N-((2-(trifluoromethyl)pyridin-4-yl)methyl)spiro[indoline-3,4′-piperidine]-1-carboxamide]	6.34	24.5	3.3	–
N#Cc1ccc(/C=C/CN2CCC3(CC2)CN(C(=O)NCc2ccnc(C(F)(F)F)c2)c2ccc(OC(F)(F)F)cc23)cc1 [Example 176, (E)-1′-(3-(4-cyanophenyl)allyl)-5-(trifluoromethoxy)-N-((2-(trifluoromethyl)pyridin-4-yl)methyl)spiro[indoline-3,4′-piperidine]-1-carboxamide]	6.54	33	3.3	–
O=C(NCc1ccnc(C(F)(F)F)c1)N1CC2(CCN(C/C=C/c3ccc(C(F)(F)F)cc3)CC2)c2cc(OC(F)(F)F)ccc21 [Example 177, (E)-5-(trifluoromethoxy)-1′-(3-(4-(trifluoromethyl)phenyl)allyl)-N-((2-(trifluoromethyl)pyridin-4-yl)methyl)spiro[indoline-3,4′-piperidine]-1-carboxamide]	5.78	100	3.3	–
O=C(NCc1ccnc(C(F)(F)F)c1)N1CC2(CCN(C/C=C/c3ccc(OC(F)(F)F)cc3)CC2)c2cc(OC(F)(F)F)ccc21 [Example 178, (E)-5-(trifluoromethoxy)-1′-(3-(4-(trifluoromethoxy)phenyl)allyl)-N-((2-(trifluoromethyl)pyridin-4-yl)methyl)spiro[indoline-3,4′-piperidine]-1-carboxamide]	6.12	100	3.3	–
O=C(NCc1ccnc(C(F)(F)F)c1)N1CC2(CCN(C/C=C/c3ccc(Cl)cc3)CC2)c2cc(OC(F)(F)F)ccc21 [Example 179, (E)-1′-(3-(4-chlorophenyl)allyl)-5-(trifluoromethoxy)-N-((2-(trifluoromethyl)pyridin-4-yl)methyl)spiro[indoline-3,4′-piperidine]-1-carboxamide]	6.43	–	–	minimal effective concentration [2, 8]: 7.6 µM; minimal effective concentration [3, 9]: 3.3 µM
O=C(NCc1ccnc(Cl)c1)N1CC2(CCN(C/C=C/c3ccc(OC(F)(F)F)cc3)CC2)c2cc(OC(F)(F)F)ccc21 [Example 180, (E)-N-((2-chloropyridin-4-yl)methyl)-5-(trifluoromethoxy)-1′-(3-(4-(trifluoromethoxy)phenyl)allyl)spiro[indoline-3,4′-piperidine]-1-carboxamide]	6.36	10	10	–
O=C(NCc1ccnc(Cl)c1)N1CC2(CCN(C/C=C/c3ccc(C(F)(F)F)cc3)CC2)c2cc(OC(F)(F)F)ccc21 [Example 181, (E)-N-((2-chloropyridin-4-yl)methyl)-5-(trifluoromethoxy)-1′-(3-(4-(trifluoromethyl)phenyl)allyl)spiro[indoline-3,4′-piperidine]-1-carboxamide]	6.09	100	10	–
O=C(NCc1ccnc(Cl)c1)N1CC2(CCN(C/C=C/c3ccc(C(F)(F)F)cn3)CC2)c2cc(OC(F)(F)F)ccc21 [Example 182, (E)-N-((2-chloropyridin-4-yl)methyl)-5-(trifluoromethoxy)-1′-(3-(5-(trifluoromethyl)pyridin-2-yl)allyl)spiro[indoline-3,4′-piperidine]-1-carboxamide]	5.83	10	10	–
COc1cc(CNC(=O)N2CC3(CCN(C/C=C/c4ccc(C(F)(F)F)cc4)CC3)c3cc(Cl)ccc32)ccn1 [Example 183, (E)-5-chloro-N-((2-methoxypyridin-4-yl)methyl)-1′-(3-(4-(trifluoromethyl)phenyl)allyl)spiro[indoline-3,4′-piperidine]-1-carboxamide]	6.74	10	3.3	–
O=C(NCc1ccnc(F)c1)N1CC2(CCN(C/C=C/c3ccc(C(F)(F)F)cc3)CC2)c2cc(Cl)ccc21 [Example 184, (E)-5-chloro-N-((2-fluoropyridin-4-yl)methyl)-1′-(3-(4-(trifluoromethyl)phenyl)allyl)spiro[indoline-3,4′-piperidine]-1-carboxamide]	6.65	3.3	3.3	–
O=C(NCc1ccnc(Cl)c1)N1CC2(CCN(C/C=C/c3ccc(Cl)cc3)CC2)c2cc(OC(F)(F)F)ccc21 [Example 185, (E)-1′-(3-(4-chlorophenyl)allyl)-N-((2-chloropyridin-4-yl)methyl)-5-(trifluoromethoxy)spiro[indoline-3,4′-piperidine]-1-carboxamide]	6.55	–	–	minimal effective concentration ([2]; Minimal Effective Concentration whereby worm motility is inhibited by approximately 70%, 96 hours, 37° C., tested 0.001-100 μM, read-out: HcL3 MEC): 3.3 µM; minimal effective concentration ([3]; MEC, decrease in microfilariae motility by visual assessment, 72 hours, curve starting at 100 μM, read-out: Di MF): 10.0 µM
Cc1noc(C)c1-c1ccc2c(c1)C1(CCN(C/C=C/c3ccc(Cl)cc3)CC1)CN2C(=O)NCc1ccnc(-c2c(C)noc2C)c1 [Example 186, (E)-1′-(3-(4-chlorophenyl)allyl)-5-(3,5-dimethylisoxazol-4-yl)-N-((2-(3,5-dimethylisoxazol-4-yl)pyridin-4-yl)methyl)spiro[indoline-3,4′-piperidine]-1-carboxamide]	5.87	100	3.3	–
Cc1noc(C)c1-c1ccc2c(c1)C1(CCN(C/C=C/c3ccc(Cl)cc3)CC1)CN2C(=O)NCc1ccnc(Cl)c1 [Example 187, (E)-1′-(3-(4-chlorophenyl)allyl)-N-((2-chloropyridin-4-yl)methyl)-5-(3,5-dimethylisoxazol-4-yl)spiro[indoline-3,4′-piperidine]-1-carboxamide]	5.61	–	–	minimal effective concentration [2, 8]: 100 µM; minimal effective concentration [3, 9]: 3.3 µM
O=C(NCc1cnc(Cl)s1)N1CC2(CCN(C/C=C/c3ccc(Cl)cc3)CC2)c2cc(OC(F)(F)F)ccc21 [Example 189, (E)-1′-(3-(4-chlorophenyl)allyl)-N-((2-chlorothiazol-5-yl)methyl)-5-(trifluoromethoxy)spiro[indoline-3,4′-piperidine]-1-carboxamide]	6.10	–	–	minimal effective concentration [2, 8]: 100 µM; minimal effective concentration [3, 9]: 14 µM
OC1CCCCC1N1CCC(c2ccccc2)CC1 (centres unmarked) [Vesamicol, 2-(4-phenyl-piperidino)-cyclohexanol]	–	–	–	toxicity to mammals [4]: highly toxic; binding affinity to vertebrate VAChT [5]: high affinity
